Measurements reported in ChEMBL document CHEMBL1201862, “PubChem BioAssay data set” (2004).
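Dose response: 5 concentrations. Exposure: 48 h. Format: 96-well plates. Endpoint: linear interpolation; highest concentration if not reached. At the GI50, growth is halved.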 Active and inactive are the calls of the source. Rule as the data show it: active = GI50 up to about 1.1 µM and inactive = higher.

Tests used:
Assay in all cases: inhibition of tumour cell growth, NCI panel, 48 h
BT-549 = tested on: BT-549
EKVX = tested on: EKVX
HL-60 = tested on: HL-60
IGROV-1 = tested on: IGROV-1
K562 = tested on: K562
KM12 = tested on: KM12
LOX IMVI = tested on: LOX IMVI
MDA-N = tested on: MDA-N
MOLT-4 = tested on: MOLT-4
Malme-3M = tested on: Malme-3M
NCI-H226 = tested on: NCI-H226
NCI-H23 = tested on: NCI-H23
OVCAR-4 = tested on: OVCAR-4
OVCAR-5 = tested on: OVCAR-5
RXF 393 = tested on: RXF 393
SF-539 = tested on: SF-539
SK-OV-3 = tested on: SK-OV-3
SN12C = tested on: SN12C
TK-10 = tested on: TK-10
UACC-62 = tested on: UACC-62

Measured: GI50

CC1CC2OC(=O)C(C)C2CC2(C)C(OC3OC(CO)C(O)C(O)C3O)OCCC12 (stereo not given)
inactive: BT-549 15.5 µM | EKVX > 100 µM | HL-60 > 100 µM | IGROV-1 > 100 µM | K562 > 100 µM | KM12 > 100 µM | LOX IMVI > 100 µM | MDA-N > 100 µM | MOLT-4 > 100 µM | Malme-3M > 100 µM | NCI-H226 > 100 µM | NCI-H23 > 100 µM | OVCAR-4 > 100 µM | OVCAR-5 > 100 µM | RXF 393 > 100 µM | SF-539 > 100 µM | SK-OV-3 > 100 µM | SN12C > 100 µM | TK-10 > 100 µM | UACC-62 16.9 µM
